Measurements taken from paper PMC12683216, “Using High‐Throughput Screening to Identify Crosslinking Peptides That Control Cell‐Mediated Matrix Degradation” (Advanced Healthcare Materials, 2025).
Where a SMILES comes first, the peptide text is derived from it. [ ]: non-standard residue; d: D form. βAla = NCCC(=O)O

Assays:
[1] = test system: hUVECs; assay: Cell growth and viability within peptide-crosslinked hydrogels; assay type: cell-based, human; details: 3.5% 8-arm PEG, 40% arms crosslinking peptide, 10% cyclic RGD, 20 million cells mL^−1, up to Day 7
Text: (§1) Each of the peptides was then used to crosslink hydrogels containing hMSCs or hUVECs at 20 million cells mL^−1 and cultured for 1, 3, or 7 days. To maximize cell spreading, we made soft hydrogels that were 3.5% 8‐arm poly(ethylene glycol) (PEG) by weight. 40% of the arms were reacted with the crosslinking peptides, and 10% of the arms were functionalized with a cyclic RGD peptide for cell adhesion. […] This supports the inhibitor studies for the soluble peptides in which the MMP‐14 inhibitor completely abolished the degradation of the KLVAD‐LM peptide by hUVECs, but not the PanMMP peptide. (Figure 3C).
(§2) For all hydrogel studies, the total volume of hydrogel was 20 µL, made with 3.5% (wt/wt) PEG, 40% of the arms were functionalized with crosslinking peptides, and 10% were functionalized with cyclic‐RGD, with a final cell concentration of 20 million cells per mL. Briefly, the PEG was dissolved at 140 mg mL^−1 in PBS, the crosslinking peptides were dissolved at 22.4 mM in PBS, and the cyclic RGD was dissolved at 5.6 mM in PBS. hMSCs were harvested from T‐75 flasks. After centrifugation and pouring the supernatant liquid, the cells were resuspended at 80 000 000 or 4 000 000 cells mL^−1. The cyclic RGD and PEG PBS solutions were mixed at the ratio of 1:1. Add 10 µL of the PEG‐cyclic RGD mixer in the wells and incubate for 10 mins. The crosslinking peptides and cell solutions were mixed at a ratio of 1:1. 10 µL of the peptide‐cell mixture was pipetted into the PEG‐cyclic RGD mixer previously dropped in the wells. The solutions were pipetted until well mixed, and after 15 min in the incubator 1 mL of media was added into each well and kept in the incubator. For gels intended for imaging, 12 mm round glass coverslips were placed in each well of the 24‐well plates prior to hydrogel fabrication. For cell viability test, sylgard layers were prepared in 24 well plates to prevent unwanted cell growth on the bottom of the well wall. Sylgard kit Part A/Part B was mixed in a 10:1 ratio by volume, and the mixture was added to the 24 well plates such that the bottom of each well was completely covered by Sylgard. The plates were placed in a biosafety hood overnight with UV light on. For all studies, three technical replicates were done per condition, and the studies were repeated three times.
(§3) The hydrogels were washed with PBS three times and incubated in 4% formaldehyde in PBS for 20 min. The hydrogels were again washed with PBS three times, followed by an incubation in 0.25% Triton X‐100 in PBS solution for 20 min. The hydrogels were washed with PBS three times, followed by a 20‐min incubation of in 1% BSA in PBS. The gels were washed 3x in PBS, and 700 µL of Phalloidin/DAPI PBS staining solution (0.1% BSA, 1 µg mL^−1 DAPI, and 1 µg mL^−1 phalloidin‐iFluor 555) was added to each well, and it was incubated for 1 h in the dark at room temperature. The hydrogels were washed 3x, and 1 mL PBS was added to each well, and they were stored in a 4 °C until they were ready for imaging.
(§4) Hydrogels were imaged by confocal microscope (LSM 800, AxioObserver, EC Olan‐Neofluar 10x/0.3 objective). The 12 mm round slides with hydrogels were taken out of 24 well plates and flipped gel side down on round‐bottom slides. Confocal microscopy was carried out in the Z‐stack mode. Phalloidin was excited at 488 nm and recorded between 493 and 630 nm. DAPI was excited at 405 nm and recorded between 410 and 501 nm. Cells in each hydrogel were measured with ImageJ software according to the particle analysis results and then averaged to obtain the mean cell area in the hydrogels.
(§5) On Days 1, 3, and 7, the media from the wells was removed and 500 µL of a 10× diluted Alamar Blue stock solution in media was added to each well with hydrogels. Three wells without any cells were used for background subtraction. The gels were incubated for 4 h, at which time the absorbance was measured with a spectrophotometer at a wavelength of 579 nm (600 nm reference). […]

[2] = test system: hMSCs; assay: as above; assay type: cell-based, human; details: 3.5% 8-arm PEG, 40% arms crosslinking peptide, 10% cyclic RGD, 20 million cells mL^−1, up to Day 7
Text: as §1, §2, §3, §4, §5

| Compound | cell spreading, growth and viability of hUVECs in crosslinked hydrogels [1] | cell spreading, growth and viability of hMSCs in crosslinked hydrogels [2] |
| --- | --- | --- |
| CC(=O)NCCC(=O)N[C@@H](CCCCN)C(=O)N[C@@H](CC(C)C)C(=O)N[C@H](C(=O)N[C@@H](C)C(=O)N[C@@H](CC(=O)O)C(=O)N[C@@H](CC(N)=O)C(=O)N[C@@H](Cc1ccc(O)cc1)C(=O)N[C@@H](C)C(=O)N[C@@H](CO)C(=O)N[C@@H](C)C(=O)N[C@@H](CCC(=O)O)C(=O)NCCC(N)=O)C(C)C [KLVAD-NY] (Ac-[βAla]KLVADNYASAE[βAla]-NH2) | only minimal cell spreading | no detectable cells |
| CC(=O)NCCC(=O)N[C@@H](CCCCN)C(=O)N[C@@H](CC(C)C)C(=O)N[C@H](C(=O)N[C@@H](C)C(=O)N[C@@H](CC(=O)O)C(=O)N1CCC[C@H]1C(=O)N[C@@H](Cc1ccc(O)cc1)C(=O)N[C@@H](C)C(=O)N[C@@H](CO)C(=O)N[C@@H](C)C(=O)N[C@@H](CCC(=O)O)C(=O)NCCC(N)=O)C(C)C [KLVAD-PY] (Ac-[βAla]KLVADPYASAE[βAla]-NH2) | less cell spreading and viability | less cell spreading and viability |
| CSCC[C@H](NC(=O)[C@H](CC(C)C)NC(=O)[C@H](CC(=O)O)NC(=O)[C@H](C)NC(=O)[C@@H](NC(=O)[C@H](CC(C)C)NC(=O)[C@H](CCCCN)NC(=O)CCNC(C)=O)C(C)C)C(=O)N[C@@H](C)C(=O)N[C@@H](CO)C(=O)N[C@@H](C)C(=O)N[C@@H](CCC(=O)O)C(=O)NCCC(N)=O [KLVAD-LM] (Ac-[βAla]KLVADLMASAE[βAla]-NH2) | supported cell spreading and growth | supported cell spreading and growth |
